Experimental data from patent publication US5342842A, “Pyrimidone derivatives and analogs in the treatment of asthma or certain skin disorders” (Pfizer Inc., priority 1992, dated 1994).

Experiments:
[1] = system: human PDE; assay: Inhibition of PDE in leukocyte homogenate preparation (human PDE assays, Dr. Hanifin); type: biochemical
From the text: (§1) See Grewe et al., J. Allergy Clin. Immunol., v. 70, pp. 452-457, 1982. […] Dr. Hanifin has a source of human PDE isolated from mononuclear leukocyte. They were approached and readily agreed to test 5-[3-(exo-bicyclo[2.2.1]hept-2-yloxy)-4-methoxyphenyl]-3,4,5,6-tetrahydropyrimidin-2(1H)-one in their human PDE assays (see Cooper et al., cited above).

[2] = system: Eosinophil Migration into Sensitized Lung Tissue; assay: Inhibition of eosinophil migration into sensitized lung tissue challenged with antigen in guinea pigs (specific EPO response in lung lavage); type: in vivo, guinea pig; conditions: Cavia porcellus, po, P.O., guinea pigs sensitized with anti-OA IgG1, ovalbumin aerosol challenge, lavage after 18 hours
Method: Normal Hartley guinea pigs (300-350 grams) delivered from Charles River Laboratories were housed 5-7 days before sensitization. Guinea pigs were then sensitized with 0.5 mg/kg anti-OA IgG1 or saline as control. After 48-72 hours, guinea pigs were dosed P.O. in groups of six animals each with compounds at up to 32 mg/kg using 2% Tween 80 as vehicle. After 1-1.5 hours the animals were injected i.p. with 5 mg/kg pyrilamine. Thirty minutes following pyrilamine administration, animals were exposed to 10 minutes of a 0.1% ovalbumin (OA) aerosol followed by a 15 minute cloud decay period in a Tri-R Airborne Infection Apparatus (Compression air flow =20 L/min, main air flow =8.4 L/min). Guinea pigs were removed from the apparatus and caged for 18 hours prior to sacrifice and the following lung lavage procedure. […]
The aliquoted sample with Triton was diluted with 1 ml PBS/0.1% Triton buffer (pH 7.0). […] The O.D. of the mixture was measured at 490 nm, with background O.D. (blank tube) subtracted out.
Duplicate O.D. readings were averaged to obtain a single value for each animal. Average O.D. ± standard error is calculated using the six obtained values within each group of animals. Specific EPO response due to antigen challenge is calculated by: [formula] Percent inhibition of specific EPO response due to drug pretreatment is calculated by: [formula]

[3] = biological target: Pulmonary Phosphodiesterase (PDEIV); assay: Inhibition of pulmonary phosphodiesterase (PDEIV) from guinea pig lung, [3H]cAMP hydrolysis; type: biochemical; conditions: 1 μM [3H]-cAMP, 37° C., 10 minutes, 1% DMSO, read-out: IC50, concentration which inhibits 50% of specific hydrolysis of [3H]cAMP to [3H]5' AMP
Method: Lung tissue from guinea pigs was placed in a homogenization buffer solution (20 mM Bistris, 5 mM 2-mercaptoethanol, 2 mM benzamidine, 2 mM EDTA, 50 mM sodium acetate, pH 6.5) at a concentration of 10 ml/gm of tissue. The tissue was homogenized using a Tekmar Tissumizer at full speed for 10 seconds. Phenylmethylsulfonyl fluoride (PMSF, 50 mM in 2-propanol) was added to the buffer immediately prior to homogenization to give a final PMSF concentration of 50μM. The homogenate was centrifuged at 12,000×g for 10 minutes at 4° C. The supernatant was filtered through gauze and glass wool and then applied to a 17×1.5 cm column of DEAE-Sepharose CL-6B, pre-equilibrated with homogenization buffer, at 4° C. A flow rate of 1 ml/min was used. After the supernatant had passed through the column, the column is washed with a volume of homogenization buffer at least two times that of the supernatant. […] Fractions were saved based on specific PDEIV activity, determined by [^3 H]cAMP hydrolysis and the ability of a […]. […]
The reaction tubes were shaken and placed in a water bath (37° C.) for 10 minutes, at which time the reaction was stopped by placing the tubes in a boiling water bath for 2 minutes. […] After vortexing, 1 ml of the elution was added to 3 ml Atomlight scintillation fluid in an appropriate vial, vortexed, and counted for [^3 H].
Percent inhibition is determined by the formula: [formula] […]

[4] = system: antigen-induced skin edema; assay: Inhibition of skin edema in guinea pigs sensitized to ovalbumin; type: in vivo, guinea pig; conditions: 32 mg/Kg oral
Method: Four guinea pigs (Hartley, male, 350-400 g) were sensitized with anti-ovalbumin IgG1 antibody. Two guinea pigs were orally dosed with 32 mg/Kg of the test compound and two other guinea pigs were dosed with vehicle (2% Tween-80). One-hour after dosing, each guinea pig was injected intraveneously with 1 ml of Evan Blue (7 mg/ml) and then his skin was challenged intradermally with 0.1 ml of ovalbumin (0.1%) or PBS. Twenty minutes after challenge, the skin was removed and skin edematous site (circular blue spots at challenge sites) was examined visually.

[5] = system: human PDE; assay: Inhibition of PDE in intact human peripheral blood leukocyte preparation (human PDE assays, Dr. Hanifin); type: cell-based
From the text: as §1

IC50 ([1]; human leukocyte homogenate preparation): 200 nM | IC50 [3]: 500 nM | IC50 ([5]; intact human peripheral blood leukocytes): 300 nM
SMILES: COc1ccc(C2CNC(=O)NC2)cc1O[C@@H]1C[C@H]2CC[C@@H]1C2 (relative stereo) [5-[3-(exo-bicyclo[2.2.1]hept-2-yloxy)-4-methoxyphenyl]-3,4,5,6-tetrahydropyrimidin-2(1H)-one]
potency in inhibiting PDE compared to Ro-20-1724 ([1]; leukocyte homogenate preparation, compared to Ro-20-1724): even greater potency than Ro-20-1724 | ED50 [2]: 10 mg/kg | intensity and area of blue spots at antigen-challenged skin sites as compared to vehicle-dosed animals ([4]; two guinea pigs, intradermal ovalbumin (0.1%), 20 minutes after challenge, visual examination): markedly reduced | effectiveness against antigen-induced skin edema in guinea pigs ([4]; conclusion of the test): effective against antigen-induced skin edema in guinea pigs | potency in inhibiting PDE compared to Ro-20-1724 ([5]; intact human peripheral blood leukocyte preparation, compared to Ro-20-1724): even greater potency than Ro-20-1724
